According to patent US20240109865A1, “INDAZOLE COMPOUNDS AS KINASE INHIBITORS” (TYRA BIOSCIENCES, INC., priority 2020, published 2024):

Key:
Test in all cases: Kinase assay, binding constants (Kd), kinase-tagged T7 phage, qPCR
[1] = target: FGFR3 (V555M) (Homo sapiens (Human), UniProt P22607, V555M); details: V555M mutant
Procedure: (§1) Kinase-tagged T7 phage strains were prepared in an E. coli host derived from the BL21 strain. E. coli were grown to log-phase and infected with T7 phage and incubated with shaking at 32° C. until lysis. The lysates were centrifuged and filtered to remove cell debris. Streptavidin-coated magnetic beads were treated with biotinylated small molecule ligands for 30 minutes at room temperature to generate affinity resins for kinase assays. The liganded beads were blocked with excess biotin and washed with blocking buffer SeaBlock (Pierce), […], 1 mM DTT to remove unbound ligand and to reduce non-specific binding.
(§2) Test compounds were prepared as 111λ stocks in 10000 DMS0. Kds were determined using an 11-point 3-fold compound dilution series with three DMSO control points. […] The compounds were then diluted directly into the assays such that the final concentration of DMSO was 0.9%. All reactions performed in polypropylene 384-well plate. Each was a final volume of 0.02 ml. […] The beads were then re-suspended in elution buffer (1×PBS, 0.05% Tween […] non-biotinylated affinity ligand) and incubated at room temperature with shaking for 30 minutes. The kinase concentration in the eluates was measured by qPCR.
(§3) Binding constants were calculated with a standard dose-response curve using the Hill equation: […]
(§4) The Hill Slope was set to −1. Curves were fitted using a non-linear least square fit with the Levenberg-Marquardt algorithm.

[2] = target: FGFR3 (Homo sapiens (Human), UniProt P22607)
Procedure: as §1, §2, §3, §4

[3] = target: FGFR4 (Homo sapiens (Human), UniProt P22455)
Procedure: as §1, §2, §3, §4

[4] = target: FGFR2 (Homo sapiens (Human), UniProt P21802)
Procedure: as §1, §2, §3, §4

[5] = target: FGFR1 (Homo sapiens (Human), UniProt P11362)
Procedure: as §1, §2, §3, §4

Sequence of FGFR2 (P21802 22-821): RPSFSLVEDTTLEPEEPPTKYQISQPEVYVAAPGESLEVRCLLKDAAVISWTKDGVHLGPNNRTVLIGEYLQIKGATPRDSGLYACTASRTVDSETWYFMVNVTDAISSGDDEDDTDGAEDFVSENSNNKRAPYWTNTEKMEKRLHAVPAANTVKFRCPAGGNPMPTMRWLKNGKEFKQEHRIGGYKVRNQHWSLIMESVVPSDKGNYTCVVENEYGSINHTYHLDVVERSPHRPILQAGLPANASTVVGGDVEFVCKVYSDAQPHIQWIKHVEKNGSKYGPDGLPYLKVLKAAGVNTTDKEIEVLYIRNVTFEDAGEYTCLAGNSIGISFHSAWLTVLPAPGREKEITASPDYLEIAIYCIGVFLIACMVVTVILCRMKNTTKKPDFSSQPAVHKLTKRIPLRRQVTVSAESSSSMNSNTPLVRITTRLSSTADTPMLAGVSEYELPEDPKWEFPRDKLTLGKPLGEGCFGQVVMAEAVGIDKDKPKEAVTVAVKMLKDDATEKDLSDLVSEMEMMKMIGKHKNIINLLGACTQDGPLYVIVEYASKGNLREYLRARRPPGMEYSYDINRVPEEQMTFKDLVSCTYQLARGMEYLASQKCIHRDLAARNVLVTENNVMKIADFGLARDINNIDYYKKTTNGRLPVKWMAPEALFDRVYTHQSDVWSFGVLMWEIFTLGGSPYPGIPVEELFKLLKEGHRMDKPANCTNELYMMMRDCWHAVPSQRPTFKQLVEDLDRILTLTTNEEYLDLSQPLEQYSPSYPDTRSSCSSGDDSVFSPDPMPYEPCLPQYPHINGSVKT
Sequence of FGFR4 (P22455 22-802): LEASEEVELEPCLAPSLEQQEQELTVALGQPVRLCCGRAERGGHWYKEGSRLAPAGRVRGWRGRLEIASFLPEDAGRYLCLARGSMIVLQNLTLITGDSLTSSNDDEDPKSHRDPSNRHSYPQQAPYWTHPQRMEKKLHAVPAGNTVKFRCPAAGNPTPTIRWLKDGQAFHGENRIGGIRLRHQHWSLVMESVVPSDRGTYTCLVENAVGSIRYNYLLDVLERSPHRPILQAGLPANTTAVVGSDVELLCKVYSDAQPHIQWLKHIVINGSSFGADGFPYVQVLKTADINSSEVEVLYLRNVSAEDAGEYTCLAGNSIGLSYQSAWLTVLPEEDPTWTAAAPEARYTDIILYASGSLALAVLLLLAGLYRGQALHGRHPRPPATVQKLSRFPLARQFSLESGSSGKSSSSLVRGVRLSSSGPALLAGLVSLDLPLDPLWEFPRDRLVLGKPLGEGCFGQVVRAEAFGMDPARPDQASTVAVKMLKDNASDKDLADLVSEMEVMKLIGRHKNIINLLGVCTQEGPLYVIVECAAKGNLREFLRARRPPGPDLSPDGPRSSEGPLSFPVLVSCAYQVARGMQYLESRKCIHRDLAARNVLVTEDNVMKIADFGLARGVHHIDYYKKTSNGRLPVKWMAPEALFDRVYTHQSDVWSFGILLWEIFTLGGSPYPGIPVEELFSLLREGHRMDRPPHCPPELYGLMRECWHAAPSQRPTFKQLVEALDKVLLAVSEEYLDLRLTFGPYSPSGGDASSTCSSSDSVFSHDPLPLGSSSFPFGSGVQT
Sequence of FGFR3 (V555M) (P22607 23-806 V555M): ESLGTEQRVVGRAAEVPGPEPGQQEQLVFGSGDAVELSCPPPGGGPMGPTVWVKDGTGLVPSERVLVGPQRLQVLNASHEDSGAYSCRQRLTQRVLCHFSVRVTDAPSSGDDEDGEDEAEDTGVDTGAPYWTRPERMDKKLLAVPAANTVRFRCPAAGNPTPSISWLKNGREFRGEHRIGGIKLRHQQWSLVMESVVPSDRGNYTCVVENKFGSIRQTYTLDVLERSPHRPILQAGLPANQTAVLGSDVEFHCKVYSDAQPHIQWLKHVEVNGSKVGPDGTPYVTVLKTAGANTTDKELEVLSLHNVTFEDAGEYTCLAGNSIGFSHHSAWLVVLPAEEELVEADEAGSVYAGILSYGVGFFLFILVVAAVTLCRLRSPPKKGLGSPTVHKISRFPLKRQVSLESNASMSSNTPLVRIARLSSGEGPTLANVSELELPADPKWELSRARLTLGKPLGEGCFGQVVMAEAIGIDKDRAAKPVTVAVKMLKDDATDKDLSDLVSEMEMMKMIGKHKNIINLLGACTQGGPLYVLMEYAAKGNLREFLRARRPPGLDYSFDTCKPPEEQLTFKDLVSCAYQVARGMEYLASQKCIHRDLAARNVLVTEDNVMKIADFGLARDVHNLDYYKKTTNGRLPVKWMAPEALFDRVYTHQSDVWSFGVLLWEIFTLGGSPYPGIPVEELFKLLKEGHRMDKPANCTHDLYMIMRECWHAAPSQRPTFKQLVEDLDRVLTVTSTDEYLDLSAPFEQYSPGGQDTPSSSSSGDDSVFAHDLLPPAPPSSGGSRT
Sequence of FGFR3 (P22607 23-806): as the sequence (P22607 23-806 V555M) above, with M533V counted along it
Sequence of FGFR1 (P11362 22-822): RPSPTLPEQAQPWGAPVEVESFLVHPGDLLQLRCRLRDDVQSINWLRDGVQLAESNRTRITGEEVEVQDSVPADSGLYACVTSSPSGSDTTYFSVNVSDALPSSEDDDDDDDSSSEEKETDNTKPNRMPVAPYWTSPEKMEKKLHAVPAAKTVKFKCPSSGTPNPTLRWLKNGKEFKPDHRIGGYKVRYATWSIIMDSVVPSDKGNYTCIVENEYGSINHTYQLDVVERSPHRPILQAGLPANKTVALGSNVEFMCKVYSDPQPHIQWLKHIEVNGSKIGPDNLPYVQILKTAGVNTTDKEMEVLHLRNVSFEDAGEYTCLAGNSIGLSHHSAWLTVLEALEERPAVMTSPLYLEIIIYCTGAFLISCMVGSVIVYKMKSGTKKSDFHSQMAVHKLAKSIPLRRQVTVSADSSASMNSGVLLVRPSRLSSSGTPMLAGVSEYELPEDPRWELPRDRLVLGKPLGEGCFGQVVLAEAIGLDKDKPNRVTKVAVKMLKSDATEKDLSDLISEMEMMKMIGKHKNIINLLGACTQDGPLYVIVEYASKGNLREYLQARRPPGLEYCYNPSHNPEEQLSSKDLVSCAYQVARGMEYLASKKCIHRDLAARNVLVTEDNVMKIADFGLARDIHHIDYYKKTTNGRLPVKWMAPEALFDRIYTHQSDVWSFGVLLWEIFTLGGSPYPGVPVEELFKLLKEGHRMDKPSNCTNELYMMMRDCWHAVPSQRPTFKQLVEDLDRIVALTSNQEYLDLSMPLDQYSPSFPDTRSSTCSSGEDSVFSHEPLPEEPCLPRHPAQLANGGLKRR

Row | SMILES | Kd [1] | Kd [2] | Kd [3] | Kd [4] | Kd [5]
1 | C[C@@H](Oc1ccc2[nH]nc(-c3cnc(N4CC5(CCCNC5)C4)nc3)c2c1)c1c(Cl)cncc1Cl [Example 132, 3-[2-(2,8-diazaspiro[3.5]nonan-2-yl)pyrimidin-5-yl]-5-[(1R)-1-(3,5-dichloro-4-pyridyl)ethoxy]-1H-indazole] | 1 to 20 nM | 1 to 20 nM | 1 to 20 nM | 1 to 20 nM | 1 to 20 nM
2 | Cc1cnnc(C)c1[C@H](C)Oc1ccc2[nH]nc(-c3cnc(N4CC5(CCS(=O)(=O)C5)C4)nc3)c2c1 [Example 147, 2-[5-[5-[(1S)-1-(3,5-dimethylpyridazin-4-yl)ethoxy]-1H-indazol-3-yl]pyrimidin-2-yl]-6λ^6-thia-2-azaspiro[3.4]octane 6,6-dioxide] | > 300 nM | > 300 nM | > 300 nM | > 300 nM | > 300 nM
3 | COC(=O)N1CC2(C1)CN(c1ccc(-c3n[nH]c4ccc(O[C@@H](C)c5c(C)cnnc5C)cc34)cn1)C2 [Example 153, methyl 6-[5-[5-[(1S)-1-(3,5-dimethylpyridazin-4-yl)ethoxy]-1H-indazol-3-yl]-2-pyridyl]-2,6-diazaspiro[3.3]heptane-2-carboxylate] | 1 to 20 nM | 20 to 100 nM | 100 to 300 nM | 100 to 300 nM | > 300 nM
4 | Cc1cnnc(C)c1[C@H](C)Oc1ccc2[nH]nc(-c3cnc(N4CC5(C4)CN(S(C)(=O)=O)C5)nc3)c2c1 [Example 155, 5-[(1S)-1-(3,5-dimethylpyridazin-4-yl)ethoxy]-3-[2-(2-methylsulfonyl-2,6-diazaspiro[3.3]heptan-6-yl)pyrimidin-5-yl]-1H-indazole] | > 300 nM | > 300 nM | 100 to 300 nM | > 300 nM | > 300 nM
5 | Cc1cnnc(C)c1[C@@H](C)Oc1ccc2[nH]nc(-c3cnc(N4CC5(C4)CN(S(C)(=O)=O)C5)nc3)c2c1 [Example 156, 5-[(1R)-1-(3,5-dimethylpyridazin-4-yl)ethoxy]-3-[2-(2-methylsulfonyl-2,6-diazaspiro[3.3]heptan-6-yl)pyrimidin-5-yl]-1H-indazole] | 1 to 20 nM | 1 to 20 nM | 1 to 20 nM | 20 to 100 nM | 100 to 300 nM
6 | C[C@@H](Oc1ccc2[nH]nc(-c3cnc(N4CC5(CCNC5)C4)nc3)c2c1)c1c(Cl)cncc1Cl [Example 158, 3-[2-(2,7-diazaspiro[3.4]octan-2-yl)pyrimidin-5-yl]-5-[(1R)-1-(3,5-dichloro-4-pyridyl)ethoxy]-1H-indazole] | 1 to 20 nM | 1 to 20 nM | 1 to 20 nM | 20 to 100 nM | 20 to 100 nM
7 | C[C@@H](Oc1ccc2[nH]nc(-c3ccc(N4CC5(CNC5)C4)nc3)c2c1)c1cc(F)cc(F)c1 [Example 169, 3-[6-(2,6-diazaspiro[3.3]heptan-2-yl)-3-pyridyl]-5-[(1R)-1-(3,5-difluorophenyl)ethoxy]-1H-indazole] | 1 to 20 nM | 1 to 20 nM | 20 to 100 nM | 20 to 100 nM | 20 to 100 nM
8 | C[C@@H](Oc1ccc2[nH]nc(-c3cnn(C4CCS(=O)(=O)CC4)c3)c2c1)c1cc(F)cc(F)c1 [Example 171, 4-[4-[5-[(1R)-1-(3,5-difluorophenyl)ethoxy]-1H-indazol-3-yl]pyrazol-1-yl]thiane 1,1-dioxide] | 1 to 20 nM | 20 to 100 nM | > 300 nM | 20 to 100 nM | 100 to 300 nM
9 | Cc1cnnc(C)c1[C@@H](C)Oc1ccc2[nH]nc(-c3ccc(N4CCN5CCC[C@H]5C4)nc3)c2c1 [Example 174, 3-[6-[(8aS)-3,4,6,7,8,8a-hexahydro-1H-pyrrolo[1,2-a]pyrazin-2-yl]-3-pyridyl]-5-[(1R)-1-(3,5-dimethylpyridazin-4-yl)ethoxy]-1H-indazole] | 1 to 20 nM | 1 to 20 nM | 1 to 20 nM | 1 to 20 nM | 1 to 20 nM
10 | Cc1cnnc(C)c1[C@@H](C)Oc1ccc2[nH]nc(-c3ccc(N4CCN5CCC[C@@H]5C4)nc3)c2c1 [Example 175, 3-[6-[(8aR)-3,4,6,7,8,8a-hexahydro-1H-pyrrolo[1,2-a]pyrazin-2-yl]-3-pyridyl]-5-[(1R)-1-(3,5-dimethylpyridazin-4-yl)ethoxy]-1H-indazole] | 1 to 20 nM | 1 to 20 nM | 1 to 20 nM | 1 to 20 nM | 1 to 20 nM

Next, values leading:

Row | Kd [1] | Kd [2] | Kd [3] | Kd [4] | Kd [5] | SMILES
11 | 1 to 20 nM | 1 to 20 nM | 1 to 20 nM | 1 to 20 nM | 1 to 20 nM | C[C@@H](Oc1ccc2[nH]nc(-c3cnc(N4CC5(CCNCC5)C4)nc3)c2c1)c1c(Cl)cncc1Cl [Example 133, 3-[2-(2,7-diazaspiro[3.5]nonan-2-yl)pyrimidin-5-yl]-5-[(1R)-1-(3,5-dichloro-4-pyridyl)ethoxy]-1H-indazole]
12 | 1 to 20 nM | 1 to 20 nM | 1 to 20 nM | 20 to 100 nM | 20 to 100 nM | C[C@@H](Oc1ccc2[nH]nc(-c3cnc(N4CC5(CCCN(S(C)(=O)=O)C5)C4)nc3)c2c1)c1c(Cl)cncc1Cl [Example 134, 5-[(1R)-1-(3,5-dichloro-4-pyridyl)ethoxy]-3-[2-(8-methylsulfonyl-2,8-diazaspiro[3.5]nonan-2-yl)pyrimidin-5-yl]-1H-indazole]
13 | 20 to 100 nM | 20 to 100 nM | 100 to 300 nM | 100 to 300 nM | > 300 nM | Cc1cnnc(C)c1[C@H](C)Oc1ccc2[nH]nc(-c3ccc(N4CC5(C4)CN(S(C)(=O)=O)C5)nc3)c2c1 [Example 149, 5-[(1S)-1-(3,5-dimethylpyridazin-4-yl)ethoxy]-3-[6-(2-methylsulfonyl-2,6-diazaspiro[3.3]heptan-6-yl)-3-pyridyl]-1H-indazole]
14 | 1 to 20 nM | 1 to 20 nM | 1 to 20 nM | 1 to 20 nM | 1 to 20 nM | COC(=O)N1CC2(C1)CN(c1ccc(-c3n[nH]c4ccc(O[C@H](C)c5c(C)cnnc5C)cc34)cn1)C2 [Example 150, methyl 6-[5-[5-[(1R)-1-(3,5-dimethylpyridazin-4-yl)ethoxy]-1H-indazol-3-yl]-2-pyridyl]-2,6-diazaspiro[3.3]heptane-2-carboxylate]
15 | 1 to 20 nM | 20 to 100 nM | 100 to 300 nM | 100 to 300 nM | > 300 nM | CCOC(=O)N1CC2(C1)CN(c1ccc(-c3n[nH]c4ccc(O[C@@H](C)c5c(C)cnnc5C)cc34)cn1)C2 [Example 151, ethyl 6-[5-[5-[(1S)-1-(3,5-dimethylpyridazin-4-yl)ethoxy]-1H-indazol-3-yl]-2-pyridyl]-2,6-diazaspiro[3.3]heptane-2-carboxylate]
16 | 1 to 20 nM | 1 to 20 nM | 1 to 20 nM | 1 to 20 nM | 20 to 100 nM | Cc1cnnc(C)c1[C@@H](C)Oc1ccc2[nH]nc(-c3cnc(N4CCC5(CC4)CCS(=O)(=O)C5)nc3)c2c1 [Example 152, 8-[5-[5-[(1R)-1-(3,5-dimethylpyridazin-4-yl)ethoxy]-1H-indazol-3-yl]pyrimidin-2-yl]-2λ^6-thia-8-azaspiro[4.5]decane 2,2-dioxide]
17 | 20 to 100 nM | 100 to 300 nM | 100 to 300 nM | > 300 nM | > 300 nM | Cc1cnnc(C)c1[C@H](C)Oc1ccc2[nH]nc(-c3cnc(N4CCC5(CC4)CCS(=O)(=O)C5)nc3)c2c1 [Example 154, 8-[5-[5-[(1S)-1-(3,5-dimethylpyridazin-4-yl)ethoxy]-1H-indazol-3-yl]pyrimidin-2-yl]-2λ^6-thia-8-azaspiro[4.5]decane 2,2-dioxide]
18 | 1 to 20 nM | 1 to 20 nM | 1 to 20 nM | 1 to 20 nM | 1 to 20 nM | C[C@@H](Oc1ccc2[nH]nc(-c3ccc(N4CC5(CCCNC5)C4)nc3)c2c1)c1c(Cl)cncc1Cl [Example 161, 3-[6-(2,8-diazaspiro[3.5]nonan-2-yl)-3-pyridyl]-5-[(1R)-1-(3,5-dichloro-4-pyridyl)ethoxy]-1H-indazole]
19 | 1 to 20 nM | 1 to 20 nM | 1 to 20 nM | 1 to 20 nM | 1 to 20 nM | C[C@@H](Oc1ccc2[nH]nc(-c3ccc(N4CC5(CCNC5)C4)nc3)c2c1)c1c(Cl)cncc1Cl [Example 164, 3-[6-(2,7-diazaspiro[3.4]octan-2-yl)-3-pyridyl]-5-[(1R)-1-(3,5-dichloro-4-pyridyl)ethoxy]-1H-indazole]
20 | 1 to 20 nM | 20 to 100 nM | > 300 nM | 20 to 100 nM | 20 to 100 nM | C[C@@H](Oc1ccc2[nH]nc(-c3cnn(C4CCN(C5CCC5)CC4)c3)c2c1)c1cc(F)cc(F)c1 [Example 167, 3-[1-(1-cyclobutyl-4-piperidyl)pyrazol-4-yl]-5-[(1R)-1-(3,5-difluorophenyl)ethoxy]-1H-indazole]
21 | 1 to 20 nM | 1 to 20 nM | 20 to 100 nM | 20 to 100 nM | 100 to 300 nM | C[C@@H](Oc1ccc2[nH]nc(-c3ccc(N4CC5(C4)CN(S(C)(=O)=O)C5)nc3)c2c1)c1cc(F)cc(F)c1 [Example 172, 5-[(1R)-1-(3,5-difluorophenyl)ethoxy]-3-[6-(2-methylsulfonyl-2,6-diazaspiro[3.3]heptan-6-yl)-3-pyridyl]-1H-indazole]
